Laboratory results published in publication PMC12711161, “Design, Synthesis, and Biological Characterization of Macromolecular Ester Prodrugs of a Selective Cyclooxygenase‐2 Inhibitor” (Chemmedchem, 2025).
Read-outs that look alike come from different tables or passages of the source.

Key:
COX‐1 [1] = molecular target: T1, COX‐1 (Mus musculus, UniProt P22437); conditions: J774 murine macrophage assay, cited from earlier work
T1 construct: endogenous in cells; host or cells: J774 murine monocyte/macrophage cell line
T1 sequence (P22437 27-602): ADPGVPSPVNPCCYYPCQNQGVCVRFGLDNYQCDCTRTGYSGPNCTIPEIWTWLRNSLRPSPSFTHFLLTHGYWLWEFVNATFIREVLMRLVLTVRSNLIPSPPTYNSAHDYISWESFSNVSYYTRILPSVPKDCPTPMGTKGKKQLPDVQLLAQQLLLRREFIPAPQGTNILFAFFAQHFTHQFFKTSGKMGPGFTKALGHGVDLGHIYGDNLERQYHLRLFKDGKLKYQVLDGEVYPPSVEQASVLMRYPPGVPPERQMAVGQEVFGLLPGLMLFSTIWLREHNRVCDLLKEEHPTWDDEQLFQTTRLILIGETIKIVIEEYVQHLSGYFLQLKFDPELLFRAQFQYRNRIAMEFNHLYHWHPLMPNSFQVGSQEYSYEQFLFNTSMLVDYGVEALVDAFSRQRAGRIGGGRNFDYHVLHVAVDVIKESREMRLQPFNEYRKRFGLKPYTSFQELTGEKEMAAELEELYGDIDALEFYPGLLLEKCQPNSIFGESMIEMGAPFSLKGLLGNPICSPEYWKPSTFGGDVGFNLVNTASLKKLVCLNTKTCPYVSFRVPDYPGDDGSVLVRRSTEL

COX‐2 [2] = molecular target: T2, COX‐2 (Mus musculus, UniProt Q05769); assay: COX‐2 inhibition of PGE2 production, LPS-stimulated J774 murine macrophage assay; format: cell-based; conditions: for IC50: J774 cells, LPS 10 μg/mL 24 h, PGE2 by EIA, mean of three experiments; for COX‐1/COX‐2 [SI]: selectivity index IC50(COX‐1)/IC50(COX‐2)
T2 construct: endogenous in cells; host or cells: J774 murine monocyte/macrophage cell line, LPS-stimulated
T2 sequence (Q05769 18-604): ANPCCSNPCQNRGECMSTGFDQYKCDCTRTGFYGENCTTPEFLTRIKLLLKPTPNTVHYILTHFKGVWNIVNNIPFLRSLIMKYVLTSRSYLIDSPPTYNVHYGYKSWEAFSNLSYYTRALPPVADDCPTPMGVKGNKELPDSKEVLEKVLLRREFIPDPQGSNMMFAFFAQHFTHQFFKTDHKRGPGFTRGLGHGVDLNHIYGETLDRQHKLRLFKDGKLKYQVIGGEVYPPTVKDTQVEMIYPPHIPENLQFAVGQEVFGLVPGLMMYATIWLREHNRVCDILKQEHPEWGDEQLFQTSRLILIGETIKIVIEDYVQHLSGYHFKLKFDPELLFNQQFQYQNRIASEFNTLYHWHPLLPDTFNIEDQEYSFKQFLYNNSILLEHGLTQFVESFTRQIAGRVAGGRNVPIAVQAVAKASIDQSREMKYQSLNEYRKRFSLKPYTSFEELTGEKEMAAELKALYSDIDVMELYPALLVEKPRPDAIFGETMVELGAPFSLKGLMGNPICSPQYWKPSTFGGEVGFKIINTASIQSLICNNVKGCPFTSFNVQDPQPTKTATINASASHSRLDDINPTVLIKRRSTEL
Protocol: This required that hydrolysis was mandatory to obtain the possible release of bioactive compounds from the macromolecular ester prodrugs. […] All these considerations led us to consider the importance of the possible hydrolysis process, which could lead to release the bioactive compounds from the macromolecular ester prodrug 13a.
(§1) The cell line was grown in DMEM supplemented with 2 mM glutamine, 25 mM HEPES, 100 units mL^–1 penicillin, 100 μg mL^–1 streptomycin, 10% fetal bovine serum (FBS), and 1.2% sodium pyruvate. Cells were plated in 24‐well culture plates at a density of 2.5 × 10^5 cells mL^–1 and allowed to adhere at 37 °C in 5% CO2 for 2 h. Immediately before the experiments, the culture medium was replaced with fresh medium, and cells were stimulated as previously described.^[ [64] ^] The evaluation of COX‐1 inhibitory activity was achieved by pretreating cells with test compounds (10 μM) for 15 min and then incubating them at 37 °C for 30 min with 15 μM arachidonic acid to activate the constitutive COX. At the end of the incubation, the supernatants were collected to measure PGE2 levels by an enzyme immuno‐assay (EIA). To evaluate COX‐2 activity, cells were stimulated for 24 h with Escherichia coli lipopolysaccharide (LPS, 10 μg mL^–1) to induce COX‐2, in the absence or presence of test compounds (0.001–10 μM). The supernatants were collected for the measurement of PGE2 by means of EIA. Celecoxib was utilized as a reference compound for the selectivity index. Triplicate wells were used for the various treatment conditions in the cell culture assay throughout the experiments. Results are expressed as the mean of three experiments of the % inhibition of PGE2 production by test compounds with respect to control samples. Data fit was obtained using the sigmoidal dose–response equation (variable slope) (GraphPad software). The IC50 values were calculated by the GraphPad Instat program (GraphPad software).

COX‐1 [3] = molecular target: T1, COX‐1; assay: COX‐1 inhibition of PGE2 production, arachidonic acid-stimulated J774 murine macrophage assay; format: cell-based; conditions: J774 cells, 15 μM arachidonic acid, PGE2 by EIA, mean of three experiments
Protocol: All tested compounds didn’t inhibit the production of PGE2 via COX‐1 in AA‐stimulated J774 macrophages.
as §1

COX‐2 [4] = molecular target: T2, COX‐2; conditions: ref [24], cited from earlier work

Row | SMILES | IC50 (COX‐2 [2]) [nM] | IC50 (COX‐1 [3]) [nM] | COX‐1/COX‐2 [SI] (COX‐2 [2]) | other results
1 | Cc1c(CCOCCO)cc(-c2ccc(S(C)(=O)=O)cc2)n1-c1ccc(F)cc1 [Compound 7b] |  |  |  | IC50 (COX‐1 [1]; ref [27]): > 10000 nM
2 | COc1cc(/C=C/C(=O)O)ccc1OCc1cn(CCOCCOCCOCCOCCOCCOCCc2cc(-c3ccc(S(C)(=O)=O)cc3)n(-c3ccc(F)cc3)c2C)nn1 [Compound 12b, (E)‐3‐(4‐((1‐(20‐(1‐(4‐Fluorophenyl)‐2‐methyl‐5‐(4‐(methylsulfonyl)phenyl)‐1H‐pyrrol‐3‐yl)‐3,6,9,12,15,18‐hexaoxaicosyl)‐1H‐1,2,3‐triazol‐4‐yl)methoxy)‐3‐methoxyphenyl)acrylic acid] | > 10000 | > 10000 |  | inhibition of PGE2 production via COX‐2 (in words) (COX‐2 [2]; LPS‐stimulated macrophages): completely devoid of COX‐2 inhibitory activity
3 | COc1cc(/C=C/C(=O)O)ccc1OCc1cn(CCOCCOCCOCCOCCOCCOCCC(=O)OCCOCCc2cc(-c3ccc(S(C)(=O)=O)cc3)n(-c3ccc(F)cc3)c2C)nn1 [Compound 13b, (E)‐3‐(4‐((1‐(27‐(1‐(4‐Fluorophenyl)‐2‐methyl‐5‐(4‐(methylsulfonyl)phenyl)‐1H‐pyrrol‐3‐yl)‐21‐oxo‐3,6,9,12,15,18,22,25‐octaoxaheptacosyl)‐1H‐1,2,3‐triazol‐4‐yl)methoxy)‐3‐methoxyphenyl)acrylic acid] | 50 | > 10000 | >200 | 
4 | Cc1c(CCOCCOC(=O)CCOCCOCCOCCOCCOCCOCCN=[N+]=[N-])cc(-c2ccc(S(C)(=O)=O)cc2)n1-c1ccc(F)cc1 [Compound 14, 2‐(2‐(1‐(4‐Fluorophenyl)‐2‐methyl‐5‐(4‐(methylsulfonyl)phenyl)‐1H‐pyrrol‐3‐yl)ethoxy)ethyl 1‐azido‐3,6,9,12,15,18‐hexaoxahenicosan‐21‐oate] | 15 | > 10000 | >666.7 | 
5 | Cc1c(CCOCCOCCOCCOCCOCCOCCN=[N+]=[N-])cc(-c2ccc(S(C)(=O)=O)cc2)n1-c1ccc(F)cc1 [Compound 19, 3‐(20‐Azido‐3,6,9,12,15,18‐hexaoxaicosyl)‐1‐(4‐fluorophenyl)‐2‐methyl‐5‐(4‐(methylsulfonyl)phenyl)‐1H‐pyrrole] | 500 | > 10000 | >20 | 
6 | Cc1c(CCO)cc(-c2ccc(S(C)(=O)=O)cc2)n1-c1ccc(F)cc1 [Compound 21] |  |  |  | IC50 (COX‐2 [4]; J774 murine macrophage assay): 70 nM; COX‐1/COX‐2 [SI] (COX‐2 [4]; selectivity index IC50(COX‐1)/IC50(COX‐2)): >142.8; IC50 (COX‐1 [1]; ref [24]): > 10000 nM
